Patent US20040014721A1, “Method for using tethered bis(polyhydroxyphenyls) and O-alkyl derivatives thereof in treating inflammatory conditions of the central nervous system” (Oklahoma Medical Research Foundation, priority 2002, published 2004)

What was measured:
EOC-20 cells = system: EOC-20 cells
Method: Lower IC50 values indicate improved efficacy. FIG. 2 illustrates the principle of the measurement using NDGA as an example test agent. In order to determine viability, cell culture medium was replaced with phenol-free DMEM (Gibco) containing 20 μL/mL of MTT viability reagent (Promega). […] Control cells were taken to indicate 100% viability and intermediate values of MTT reduction were scaled to percentage of control. For each compound, an LD50 value was determined by extrapolation through sublethal concentrations. This value represents the concentration that reduced the MTT viability parameter by 50%.

G93A-SOD1 mice = experiment: G93A-SOD1 mouse ALS model, NDGA i.p.: rotorod and survival; format: in vivo
Method: More subtle defects in motor performance are measured using a rotorod device. The animals are placed on a horizontal rod set to spin about its long axis, initially at 1 rpm. The revolution rate is increased at a constant rate of 1 rpm every 10 sec and the experiment continues until the animal falls off the rod. In contrast to mice bearing mutant SOD1 transgenes, animals bearing the wild-type human SOD1 transgenes display healthy motor function.
The G93A-SOD1 mice were used to test for in vivo efficacy of a benchmark tethered bis(polyhydroxyphenyl) compound, nordihydroguaiaretic acid (NDGA). In one experiment, 10 G93A-SOD1 animals were trained to the rotorod task at 85 days of age. At 90 days of age, animals were divided into two groups of 5 animals each. One group was injected intraperitoneally with NDGA (10 mg/kg, 5 days/week, in 95% saline/5% DMSO vehicle). The control group received vehicle only. Animals were tested on the rotorod device every 5 days subsequently.
Initially, rotorod performance characteristics improve in all mice as the animals become acquainted with the apparatus. At 100 days animals obtain peak performance (FIG. 3A). At timepoints subsequent to 100 day, animals decline in motor performance. In order to control for differences in initial strength amongst the 10 animals, all data subsequent to the 100 day timepoint was expressed as a percentage relative to the peak performance at 100 day (FIGS. 3B and 3C). […] When the data in FIG. 3B were assessed using repeated measures analysis of variance (ANOVA), a significant age X treatment effect was observed (p<0.005). At the 120D timepoint, the statistical assessment by Student's t-test indicates p<0.08 between drug and vehicle groups (i.e. 92% probability of a protective drug effect).
The potency of NDGA in vitro inspired further study in vivo. Two separate studies were performed. In the first experiment, 10 G93A-SOD1 mice were randomized into groups receiving 10 mg/kg NDGA i.p. or vehicle alone, beginning at 90 D of age. […] Rotarod performance tests were conducted at 5 D intervals. […] The median lifespan of the five NDGA-treated animals was 127 D, as compared to 121 D for the control group, representing a 20% extension of lifespan after the start of treatment.
In a separate experiment, NDGA was administered intraperitoneally to a small group of G93A-SOD1 mice (5 control and 5 drug-treated animals; 10 mg/kg 5 days/week beginning at 90 D). In this paradigm, NDGA also extended survival although logrank statistics were not formally significant (median lifespan after start of treatment=31 D in control animals and 37 D in NDGA-treated animals; p=0.074 by logrank test). […] The i.p. administration of NDGA was somewhat affected by the inclusion of DMSO in vehicle; G93A-SOD1 mice receiving DMSO alone died approximately 10 D sooner than normally would be expected from these animals. Taken together, the data strongly indicate a positive effect of NDGA on the prognosis of disease in rapidly-progressing G93A-SOD1 mice.

Aβ-induced neurotoxicity = experiment: Rat model of Aβ-induced neurotoxicity (ICV Aβ40 + Aβ42 + ApoE4), radial eight-arm maze; format: in vivo, Sprague-Dawley male rats; details: 0.25% NDGA diet
Description: In this model, rats are infused intracerebroventricularly (ICV) with Aβ adsorbed to an apo-lipoprotein carrier. Thus, to determine whether dicatechol (e.g., microglial inhibitor nordihydroguaiaretic acid) blocks Aβ-induced neurotoxicity the Frautschy model was used. […] Each group consisted of six rats fed either a control or an NDGA supplemented diet (Table VII).
Rats were trained on a radial eight-arm maze as described previously. After they achieved 0-2 error level, they underwent surgery for implantation of the cannulae and osmotic pumps. Twenty-four hours after surgery, they were started on the dietary treatment.
Time and error scores from six trials for each experimental group were subjected to analysis of variance (ANOVA). Tucky-Kramer test for multiple comparisons was used as a posthoc test. Performance in the memory task was analyzed separately over all six trials.

Compound: C[C@H](Cc1ccc(O)c(O)c1)[C@@H](C)Cc1ccc(O)c(O)c1 [NDGA, 1,4-bis (3,4-Dihydroxyphenyl)-2,3-dimethylbutane]
- toxicity at 100 μM (EOC-20 cells): no toxicity
- median lifespan after start of treatment (G93A-SOD1 mice; 10 mg/kg i.p. 5 days/week from 90 D): 37 D
- extension of lifespan after the start of treatment (G93A-SOD1 mice; 10 mg/kg i.p. from 90 D): 20%
- median lifespan (G93A-SOD1 mice; 10 mg/kg i.p. from 90 D): 127 D
- reduction in rate of motor functional decline relative to vehicle (G93A-SOD1 mice; 10 mg/kg i.p. from 90 D, linear regression 100-120D): 38%
- slope of motor functional decline (G93A-SOD1 mice; 10 mg/kg i.p., 100-120D): 2.96 % decrease/day
- rotarod performance (G93A-SOD1 mice; i.p. administration): not significantly affected
- working memory errors and latency (Aβ-induced neurotoxicity; day 25): significant decrease in the number of working memory errors and latency
- reference errors (Aβ-induced neurotoxicity; day 25 and day 30, not significant): suppressed reference errors
